For data set [1], the system named is Beet Armyworm. Description: Mite/insect screen: Beet Armyworm (BAW). Format: in vivo, Spodoptera exiqua. The conditions noted are these: Spodoptera exigua, 144 h, 6 day. The method, then:
(§1) The formula 1A compounds were tested for miticidal and insecticidal activity in the following mite/insect screen. Each test compound was formulated by dissolving the compound in an acetone-alcohol (1:1) mixture containing 23 g of TOXIMUL R (sulfonate/nonionic emulsifier blend) and 13 g of TOXIMUL S (sulfonate/nonionic emulsifier blend) per liter. These mixtures were then diluted with water to give the indicated concentrations.
(§2) Two-spotted spider mites and cotton aphids were introduced on squash cotyledons and allowed to establish on both leaf surfaces. The leaves were then sprayed with 5 ml of test solutions using a DeVilbiss atomizing sprayer at 10 psi. Both surfaces of the leaves were covered until run off and then allowed to dry for one hour. After standard exposure periods percent mortality was evaluated. Additional insects were evaluated using similar formulations and evaluation procedures.

Data set [2] concerns Adult Stablefly. Description: In vitro activity against adult stable fly. Format: in vivo. The note with it: Stomoxys calcitrans. The source says:
(§3) The formula 1A compounds are also active against members of the insect order Diptera. Tables VIII and IX summarize the in vitro studies of the formula 1A compounds against blowfly larvae and adult stable fly.

The subject of data set [3] is Rootknot Nematode. Description: Mite/insect screen: Rootknot Nematode (NEM). The note with it: 264 h, 11 day. Format: in vivo, Meliiodyne spp. The method, then:
as §1, §2

For data set [4], the system named is Neonate Tobacco Budworm. Description: LD50 against neonate tobacco budworm (petri dish assay). The note with it: Heliothis virescens; neonate larvae; mortality evaluated at 24 and 48 hours; mean of two tests. Format: in vivo. Here is the method: The formula 1A compounds were evaluated in the following assay to determine the LD50 against neonate tobacco budworm (Heliothis virescens). A petri dish (100 mm×20 mm) is inverted and the lid lined with a #1 qualitative filter paper. Ten neonate larvae are placed in each dish and a 1 ml test solution is pipetted onto the insects. The petri dish bottom is then placed on the lid to contain the larvae. At 1 hr. after treatment, a small piece of Heliothis diet (modified shurry, Southland Products, Lake Village, AR) is added to each dish. The mortality is evaluated at 24 and 48 hours. Each test is run in triplicate.

The subject of data set [5] is Aster Leafhopper. In words: Mite/insect screen: Aster Leafhopper (ALH). Format: in vivo. The note with it: Macrosteles fascifrons, 24 hr. The method, then: as §1, §2
Data set [6] deals with Southern Corn Rootworm. In words: Mite/insect screen: Southern Corn Rootworm (SCRW). The note with it: 264 h, 11 day. Format: in vivo, Diabrotica undecimpunctata howardi. Here is the method:
as §1, §2

For data set [7], the system named is Tobacco Budworm. In words: Mite/insect screen: Tobacco Budworm (TBW). Format: in vivo. The conditions noted are these: Heliothis virescens, 144 h, 6 day. Here is the method:
as §1, §2

Data set [8] has as its system Blowfly Larvae. Description: In vitro activity against blowfly larvae. Format: in vivo. The note with it: 5 ppm.
Description: as §3

The subject of data set [9] is Cotton Aphid. In words: Mite/insect screen: Cotton Aphid (CA). Format: in vivo, Aphis gossypii Glover. The conditions noted are these: Aphis gossypii, 4-5 day. Here is the method: as §1, §2
For data set [10], the system named is Two-spotted Spider Mite. In words: Mite/insect screen: Two-spotted Spider Mite (TSSM). Format: in vivo. The conditions noted are these: Tetranychus urticae, 4-5 day. The method, then: as §1, §2
The test system of data set [11] is German Cockroach. Description: Mite/insect screen: German Cockroach (GECR). Format: in vivo. The note with it: Blattella germanica. Here is the method:
as §1, §2

Where [12] appears, read: 24 hr, read-out: % mortality 24 hr.
[13] abbreviates: 48 hr, read-out: % mortality 48 hr.

Values after ≈ are worked out from the molar mass of the structure shown. Where two headings read alike, the source gives them in different places.

Broadly, the inhibition is how much of the control response was suppressed. Read a high inhibition as strong suppression. For orientation: mortality means the percentage killed. Usually LC50 stands for the concentration lethal to half of the exposed cells or organisms. Low values mean greater toxicity, high ones lower toxicity.

Consider `CCC1CCCC(OC2CCC(N(C)C)C(C)O2)C(C)C(=O)C2=CC3C(C=C(C)C4CC(OC5OC(C)C(OC)C(O)C5OC)CC43)C2CC(=O)O1` (stereo not shown) [Compound A83543L], for which the inhibition at 200 ppm in data set [1] amounted to 100%; in data set [3], 0%; in data set [5], 100%; in [6] it was 0%; in data set [7], 100%; in [9], 0%. Also, the inhibition at 200 ppm in [10] was 0%; in data set [11] (168 h, 7 day), 40%; in [11] (504 h, 21 day), 100%. Also, the inhibition at 400 ppm turned out to be 100% in data set [1]; 0% in [3]; 100% in data set [5]; 0% in data set [6]; 100% in [7]; 0% in data set [9]. The inhibition at 400 ppm in data set [10] came to 0%; in data set [11] (168 h, 7 day) it was 0%; in data set [11] (504 h, 21 day), 100%. Also, the mortality at 5 ppm was 70% in data set [2] (setting [12]) and 100% in data set [2] (setting [13]). This compound came in with a 50% lethal concentration (LC50) in data set [4] of 26 µg/mL (≈ 35.5 µM). The “% mortality” value in data set [8] was 90%.
On to `CCC1CCCC(OC2CCC(NC)C(C)O2)C(C)C(=O)C2=CC3C(C=CC4CC(OC5OC(C)C(OC)C(O)C5OC)CC43)C2CC(=O)O1` (stereo not shown) [Compound A83543M], for which the inhibition at 200 ppm in data set [1] was 0%; in data set [3], 0%; in data set [5], 60%; in data set [6], 0%; in data set [7], 70%; in data set [9], 0%. For the same compound, the inhibition at 200 ppm was 0% in data set [10]; 0% in data set [11] (168 h, 7 day); 20% in data set [11] (504 h, 21 day). In addition, the inhibition at 400 ppm in [1] was 0%; in [3], 0%; in data set [5] it was 100%; in [6], 0%; in data set [7], 100%; in [9] it was 0%. Besides, the inhibition at 400 ppm in [10] was found to be 0%; in [11] (168 h, 7 day), 0%; in data set [11] (504 h, 21 day), 40%. In addition, the mortality at 5 ppm in [2] (setting [12]) turned out to be 60%; in data set [2] (setting [13]), 100%. In addition, in data set [4], the 50% lethal concentration (LC50) was found to be 22.6 µg/mL (≈ 32.1 µM).
Consider `CCC1CCCC(OC2CCC(NC)C(C)O2)C(C)C(=O)C2=CC3C(C=C(C)C4CC(OC5OC(C)C(OC)C(O)C5OC)CC43)C2CC(=O)O1` (stereo not shown) [Compound A83543N], for which the inhibition at 200 ppm amounted to 90% in data set [1]; 0% in [3]; 100% in data set [5]; 0% in data set [6]; 100% in data set [7]; 0% in [9]. In addition, the inhibition at 200 ppm amounted to 0% in data set [10]; 0% in data set [11] (168 h, 7 day); 0% in data set [11] (504 h, 21 day). The inhibition at 400 ppm in [1] is 100%; in data set [3] it was 0%; in data set [5], 100%; in data set [6] it was 0%; in data set [7], 100%; in [9] it was 0%. Also, the inhibition at 400 ppm in data set [10] was found to be 0%; in data set [11] (168 h, 7 day), 0%; in data set [11] (504 h, 21 day), 0%. The figures for the mortality at 5 ppm in [2] (setting [12]) and in [2] (setting [13]) were 20% and 90%, respectively. Also, in data set [4], the LC50 stood at 40 µg/mL (≈ 55.7 µM).

(Values after patent US5202242A, “A83543 compounds and processes for production thereof” (DowElanco, priority 1991, dated 1993).)
